From patent US20110245105A1, “Methods and Kits for Direct Detection and Susceptibility Profiling of Beta-Lactam Resistant Bacteria” (YISSUM RESEARCH DEVELOPMENT COMPANY OF THE HEBREW …, priority 2008, published 2011)

Experiments:
Format in all cases: cell-based
[1] = tested on: K. pneumoniae; test: modular antibiotic resistance detection kit on urine sample pellets
Description: (§1) A modular antibiotic resistance detection kit offers more flexibility in testing different resistance profiles. In the modular detection kit exemplified here, the ART strip is replaced by filter paper segments glued to a slide, each segment impregnated with a single antibiotic.
(§2) Specifically, pathogen samples were tested using filter papers impregnated with the following beta-lactam antibiotics: ampicillin [Amp], augmentin (a combination of amoxicillin and clavulanic acid) [AMC], clavulanic acid (Reduced Resistance test) [RR], ceftazidime [Caz] and either imipenem or meropenem [CPM]. The impregnation details of the fragments were as in the previous Examples.
(§3) Filter paper (Whatman no. 3] strips impregnated with Assay Reagent solution were used as “indicator strips”. An indicator strip was attached to the plain top slide as shown in FIG. 2. Aliquots of the pellets of the urine samples tested were placed on each of the segments. The test was started by placing the activated indicator-strip-slide, on the modular antibiotic slide. The scan results obtained after 5-10 min at 38° C. are illustrated schematically in FIG. 2 where all segments, except for the negative (no antibiotic) control, show decolorization indicating resistance to each antibiotic in that array.
(§4) Samples resistant to ceftazidime but affected by clavulanic acid were assumed to contain extended spectrum beta lactamases (ESBLs). The ‘Confirmed’ detections column summarizes the number of CLP-validated results out of the total findings recorded.

[2] = tested on: Proteus mirabilis; test: as above
Description: as §1, §2, §3, §4

[3] = tested on: Citrobacter freundii; test: as above; conditions: profile r23, ESBL Pos; note: key: R = resistant; S = sensitive
Description: as §1, §2, §3, §4

[4] = tested on: E. coli; test: as above
Description: as §1, §2, §3, §4

[5] = tested on: Prot. mirabilis; test: ART strip test on urine sample pellets
Description: (§5) Filter paper (Whatman no. 3) strips impregnated with 50 mM potassium iodide and 10 mM iodine in 0.75% aqueous starch solution were divided into 6 test areas. Appropriate antibiotic substrates were prepared at a final concentration of 20 mg/mL. Each test area was impregnated with 30 μL of the appropriate solution. The strips were then dried in a lyophilizer and stored with a desiccant at 4° C.
(§6) One mL urine samples were spun 2 minutes at 3000 RPM in room temperature. Supernatants were removed and aliquots of the resulting pellets were streaked on standard slides.
(§7) The product of the enzymatic degradation of a beta-lactam antibiotic removes the iodine from the ART strip and causes local decolorization in that strip. Typically, a detection kit consists of two slides, as illustrated in FIG. 2. The bottom slide is streaked with the sample to be tested. The top slide (lid) carries the ART strip which is activated when each test area on the strip receives 25 μL of the activator solution consisting of 40 mg gelatin in 100 mL phosphate buffer pH 6.5. The test starts when the top slide carrying the freshly activated ART strip contacts the bottom slide carrying the sample. It may be carried out at ambient temperatures but will be accelerated by warming-up to 41° C. […] Result is confirmed if no decolorization took place in the absence of the bacteria (the background of that test area) or in the absence of the antibiotic (as in Test Area 2 in FIG. 1).
(§8) One mL urine sample pellets were collected as described in Example 1 and each streaked on a slide. The strip of the invention (termed ART for Antibiotics Resistance Test) was used to test for beta-lactamase and its ability to degrade Ceftazidime [Caz], Ceftriaxone [Cro], Cefuroxime [Cxm] and Ampicillin [Amp]. The strip, containing iodine and starch and divided to areas containing each of the abovementioned antibiotics, and attached to a plain slide, was activated as shown above, and placed on the streaked slide. After 5-15 minutes at 33° C.-38° C. the slide was scanned and recorded.

[6] = tested on: Acinetobacter sp.; test: ART strip test on urine sample pellets; conditions: 1 sample (r29)
Description: as §5, §6, §7, §8

[7] = tested on: K. pneumoniae; test: ART strip test on urine sample pellets
Description: as §5, §6, §7, §8

[8] = tested on: K. oxytoca; test: ART strip test on urine sample pellets
Description: as §5, §6, §7, §8

[9] = tested on: Str. agalactiae; test: ART strip test on urine sample pellets; conditions: 3 samples (r34)
Description: as §5, §6, §7, §8

[10] = tested on: Staphylococcus sp.; test: ART strip test on urine sample pellets
Description: as §5, §6, §7, §8

[11] = tested on: Citr. koseri; test: ART strip test on urine sample pellets; conditions: 2 samples (r25)
Description: as §5, §6, §7, §8

[12] = tested on: Morg. morganii; test: ART strip test on urine sample pellets
Description: as §5, §6, §7, §8

[13] = tested on: E. faecalis; test: ART strip test on urine sample pellets; conditions: 4 samples (r27)
Description: as §5, §6, §7, §8

[14] = tested on: E. coli; test: ART strip (Antibiotics Resistance Test), iodometric detection of beta-lactam hydrolysis by un-cultured urine sample pellets
Description: as §5, §6, §7, §8

[15] = tested on: K. pneumoniae; test: conventional lab procedures [CLP], resistance of bacterial isolates; conditions: profile r19 of Table 2
Excerpt: (§9) The same specimens were examined using conventional lab procedures [CLP] that determined the identity of the bacterial isolates and their resistance to the above beta-lactams.

[16] = tested on: Morg. morganii; test: as above; conditions: 1 sample (r23)
Excerpt: as §9

[17] = tested on: carbapenem-resistant Enterobacteriaceae; test: modular kit for detection of CRE in urine sample; conditions: CRE-containing urine sample pellets; 12 minutes at 38° C.
Description: The kit constructed as a twin-slide [as illustrated by FIG. 1] carries an “OCTET” strip impregnated [as in Example 1] with an array of eight beta-lactam antibiotics and 1 non-beta-lactam control [S].
To illustrate the life-saving potential of the proposed technology which eliminates delays in diagnosis of carbapenem-resistant members of the Enterobacteriaceae family (CRE), a CRE sample was analyzed using the invention's modular kit, containing ampicillin, ceftazidime, augmentin, cefotaxime, imipenem, cefuroxime, meropenem and ceftriaxone as beta-lactamase substrates and a non-beta-lactam antibiotic, served as a negative control.
Filter paper segments were glued to a slide, each segment impregnated with a single antibiotic of the abovementioned antibiotics and streaked with carbapenem-resistant Enterobacteriaceae-containing urine sample pellets, prepared as described in Examples 1 to 3. The slide was contacted with indicator strips attached to a slide.

[18] = tested on: E. coli; test: conventional lab procedures [CLP], resistance of bacterial isolates; conditions: profile r9 of Table 2; note: key: R = resistant; S = sensitive
Excerpt: as §9

[19] = K. pneumoniae (5 samples), profile r17, ESBL Pos
[20] = K. pneumoniae, profile r18, ESBL Pos
[21] = K. pneumoniae, profile r20, ESBL Pos
[22] = K. pneumoniae, profile r21, ESBL Neg
[23] = Proteus mirabilis (3 samples), profile r25, ESBL Pos
[24] = Proteus mirabilis, profile r26, ESBL Pos
[25] = Proteus mirabilis, profile r27, ESBL Neg
[26] = E. coli (16 samples), profile r6, ESBL Neg, 5-10 min at 38° C.

Compound: CC(C)(O/N=C(\C(=O)N[C@@H]1C(=O)N2C(C(=O)[O-])=C(C[n+]3ccccc3)CS[C@H]12)c1csc(N)n1)C(=O)O [Caz, Ceftazidime]
- resistance found with modular kit [1, 19]: R
- resistance found with modular kit [1, 20]: R
- resistance found with modular kit ([1]; K. pneumoniae, profile r19): R
- resistance found with modular kit [1, 21]: R
- resistance found with modular kit [1, 22]: S
- resistance found with modular kit [2, 23]: R
- resistance found with modular kit [2, 24]: R
- resistance found with modular kit [2, 25]: S
- resistance found with modular kit [3]: R
- resistance found with modular kit [4, 26]: S
- resistance found with modular kit ([4]; E. coli, profile r9, ESBL Neg): S
- resistance found with modular kit ([4]; E. coli, profile r10, ESBL Neg): S
- resistance found with modular kit ([4]; E. coli, profile r11, ESBL Neg): S
- resistance found with modular kit ([4]; E. coli, profile r12, ESBL Neg): S
- resistance found with modular kit ([4]; E. coli, profile r14, ESBL Pos): R
- resistance found with modular kit ([4]; E. coli, profile r15, ESBL Pos): R
- resistance profile predicted by ART ([5]; 1 sample (r18)): S
- resistance profile predicted by ART ([5]; 1 sample (r19)): S
- resistance profile predicted by ART ([5]; 1 sample (r20)): R
- resistance profile predicted by ART ([5]; 6 samples (r17)): S
- resistance profile predicted by ART [6]: S
- resistance profile predicted by ART ([7]; 1 sample (r12)): S
- resistance profile predicted by ART ([7]; 8 samples (r11)): S
- resistance profile predicted by ART ([7]; 11 samples (r10), MDR): R
- resistance profile predicted by ART ([8]; 1 sample (r15)): S
- resistance profile predicted by ART ([8]; 3 samples (r14)): S
- resistance profile predicted by ART [9]: S[nd]
- resistance profile predicted by ART ([10]; 1 sample (r31)): S
- resistance profile predicted by ART ([10]; 1 sample (r32)): S
- resistance profile predicted by ART [11]: S
- resistance profile predicted by ART ([12]; 1 sample (r22)): S
- resistance profile predicted by ART ([12]; 1 sample (r23)): S
- resistance profile predicted by ART [13]: S[nd]
- resistance profile predicted by ART ([14]; 3 samples (r8), MDR): R
- resistance profile predicted by ART ([14]; 12 samples (r7)): S
- resistance profile predicted by ART ([14]; 28 samples (r6), 5-15 minutes at 33° C.-38° C.): S
- CLP result differing from kit (in brackets) [15]: S
- CLP result differing from ART (in brackets) [16]: R

Compound: augmentin [AMC]
- resistance found with modular kit [1, 19]: I
- resistance found with modular kit [1, 20]: R
- resistance found with modular kit ([1]; K. pneumoniae, profile r19): R
- resistance found with modular kit [1, 21]: R
- resistance found with modular kit [1, 22]: S
- resistance found with modular kit [2, 23]: I
- resistance found with modular kit [2, 24]: S
- resistance found with modular kit [2, 25]: R
- resistance found with modular kit [3]: R
- resistance found with modular kit [4, 26]: S
- resistance found with modular kit ([4]; E. coli, profile r7): S
- resistance found with modular kit ([4]; E. coli, profile r8): S
- resistance found with modular kit ([4]; E. coli, profile r9, ESBL Neg): R
- resistance found with modular kit ([4]; E. coli, profile r10, ESBL Neg): I
- resistance found with modular kit ([4]; E. coli, profile r11, ESBL Neg): I
- resistance found with modular kit ([4]; E. coli, profile r12, ESBL Neg): I
- resistance found with modular kit ([4]; E. coli, profile r13): R
- resistance found with modular kit ([4]; E. coli, profile r14, ESBL Pos): R
- resistance found with modular kit ([4]; E. coli, profile r15, ESBL Pos): R
- hydrolysis by the tested specimen (decolorization) [17]: hydrolysis
- CLP result differing from kit (in brackets) [18]: S
